The values below come from patent US9815854B2, “3-(3H-imidazo[4,5-B]pyridin-2-yl)-1H-pyrazolo[3,4-C]pyridine and therapeutic uses thereof” (Samumed, LLC, priority 2014, dated 2017).

Read-outs that look alike come from different tables or passages of the source.

In assay [1] the test system is Wnt activity (Sp5-Luc reporter, TCF/LEF binding sites) in SW480 colon carcinoma cells. Description: Sp5-Luc Wnt reporter gene screening assay in SW480 colon carcinoma cells. The assay is classed as cell-based, human. An excerpt: The screening assay for Wnt activity is described as follows. Reporter cell lines can be generated by stably transducing cancer cell lines (e.g., colon cancer) or primary cells (e.g., IEC-6 intestinal cells) with a lentiviral construct that includes a Wnt-responsive promoter driving expression of the firefly luciferase gene.
SW480 colon carcinoma cells were transduced with a lentiviral vector expressing luciferase with a human Sp5 promoter consisting of a sequence of eight TCF/LEF binding sites. SW480 cells stably expressing the Sp5-Luc reporter gene and a hygromycin resistance gene were selected by treatment with 150 μg/ml of hygroinycin for 7 days. These stably transduced SW480 cells were expanded in cell culture and used for all further screening activities. For Sp5-Luc reporter gene assays, the cells were plated at 10,000 cells/well in 96-well plates with growth medium containing 10% fetal calf serum and incubated overnight at 37° C. and 5% CO2. Each compound was dissolved in DMSO as a 10 mM stock in standard j-vials and used to prepare compound source plates in dose-response format with 3-fold serial dilutions and a 10 mM top concentration. Compound transfer from serially diluted source plates to assay plates containing the cells was accomplished using a pintool (Multimek 96, Beckman equipped with V&P Scientific FP1S50H pins) based liquid handling protocol. This protocol used a slotted pin to transfer 50 nl of compound from a source plate well to an assay plate well containing 50 μl of cells in growth medium. […] Control wells received 50 nl of DMSO treatment for nommlization and calculating IC50 values. The treated cells were incubated at 37° C. and 5% CO2 for an additional forty-two hours. Following incubation, the growth medium was removed and 50 μl of BrightGlo luminescence reagent (Promega) was added to each well of the 96-well assay plates. The plates were placed on an orbital shaker for 5 min and then luminescence was quantified on the Victor3 (Perkin Elmer) plate reader. Readings were normalized to DMSO only treated cells, and normalized activities were utilized for IC50 calculations using the dose-response log (inhibitor) vs. response—variable slope (four parameters) nonlinear regression feature available in GraphPad Prism 5.0 or 6.0.
For orientation: A reporter such as luciferase makes a cellular process visible.

Assay [2] concerns primary human fibroblasts derived from IPF patients (LL29 cells). Put plainly: Inhibition of the fibrotic process in TGF-β1-treated primary human fibroblasts from IPF patients (αSMA staining). It counts as cell-based. The settings on record: Fibroblast, 96 h, TGF-β1 20 ng/mL, 4 days, read-out: Inhibition of fibrosis EC50. An excerpt: The above synthesized compounds were screened using primary human fibroblasts (derived from IPF patients) treated with TGF-β1 to determine their ability to inhibit the fibrotic process.
Human Fibroblast Celt Culture: Primary human fibroblasts derived from IPF patients (LL29 cells) [^1Xiaoqiu Liu, et.al., “Fibrotic Luna Fibroblasts Show Blunted Inhibition by cAMP Due to Deficient cAMP Response Element-Binding Protein Phosphorylation”, Journal of Pharmacology and Experimental Therapeutics (2005), 315(2), 678-687; ^2Watts, K. L., et.al., “RhoA signaling modulates cyclin D1 expression in human lung fibroblasts; implications for idiopathic pulmonary fibrosis”, Respiratory Research (2006), 7(1), 88] were obtained from American Type Culture Collection (ATCC) and expanded in F12 medium supplemented with 15% Fetal Bovine Serum and Penicillin/Streptomycin.
Compound Screening: Each compound was dissolved in DMSO as a 10 mM stock and used to prepare compound source plates. Serial dilution (1:2, 11-point dose-response curves from 10 μM to […]) and compound transfer was performed using the ECHO 550 (Lahcyte, Sunnyvale, Calif.) into 384-well clear bottom assay plates (Greiner Bio-One) with appropriate DMSO backfill fhr a final DMSO concentration of 0.1%. LL29 cells were plated at 1,500 cells/well in 80 μl/well F12 medium supplemented with 1% Fetal Bovine Serum. One hour after addition of the cells. TGF-β1 (Peprotech; 20 ng/mL) was added to the plates to induce fibrosis (ref. 1 and 2 above), Wells treated with TGF-β1 and containing DMSO were used as controls. Cells were incubated at 37° C. and 5% CO2 for 4 days. Following incubation for 4 days, SYTOX green nucleic acid stain (Life Technologies [Thermo Fisher Scientific]) was added to the wells at a final concentration of 1 uM and incubated at room temperature for 30 min. Cells were then fixed using 4% formaldehyde (Electron Microscopy Sciences), washed 3 times with PBS followed by blocking and penneabilization using 3% Bovine Serum Albumin (BSA; Sigma) and 0.3% Triton X-100 (Sigma) in PBS. Cells were then stained with antibody specific to α-smooth muscle actin (αSMA; Abeam) (ref 1 and 2 above) in 3% Bovine Serum Albumin (BSA; Sigma) and 0.3% Triton X-100 (Sigma) in PBS, and incubated overnight at 4° C. Cells were then washed 3 times with PBS, followed by incubation with Alexa Flor-647 conjugated secondary antibody (Life Technologies [Thermo Fisher Scientific]) and DAPI at room temperature for 1 hour, Cells were then washed 3 times with PBS and plates were sealed for imaging. αSMA staining was imaged by excitation at 630 nm and emission at 665 nm and quantified using the Compartmental Analysis program on the CellInsight CX5 (Thermo Scientific). Dead or apoptotic cells were excluded from analysis based on positive SYTOX green staining. % of total cells positive for αSMA were counted in each well and normalized to the average of 11 wells treated with TGF-β1 on the same plate using Dotmatics' Studies Software. The normalized averages (fold change over untreated) of 3 replicate wells for each compound concentration were used to create dose-responses curves and EC50 values were calculated using non-linear regression curve fit in the Dotmatics' Studies Software. The EC50 values are reported.

`CN(C)c1cncc(-c2cc3c(-c4nc5c(-c6cccc(F)c6)ccnc5[nH]4)n[nH]c3cn2)c1` [Compound 7, 5-(3-(7-(3-Fluorophenyl)-3H-imidazo[4,5-b]pyridin-2-yl)-1H-pyrazolo[3,4-c]pyridin-5-yl)-N,N-dimethylpyridin-3-amine]: the IC50 in assay [1] (Homo sapiens) came to 85.4 nM. For the same molecule, in assay [2], the EC50 worked out at 406 nM.
Regarding `CC(C)(C)C(=O)Nc1cncc(-c2cc3c(-c4nc5c(-c6cccc(F)c6)ccnc5[nH]4)n[nH]c3cn2)c1` [Compound 8, N-(5-(3-(7-(3-Fluorophenyl)-3H-imidazo[4,5-b]pyridin-2-yl)-1H-pyrazolo[3,4-c]pyridin-5-yl)pyridin-3-yl)pivalamide], the IC50 in assay [1] (Homo sapiens) turned out to be 155 nM. Besides, in assay [2], the EC50 is 75 nM.
`CC(C)C(=O)Nc1cncc(-c2cc3c(-c4nc5c(-c6ccccc6F)ccnc5[nH]4)n[nH]c3cn2)c1` [Compound 61, N-(5-(3-(7-(2-Fluorophenyl)-3H-imidazo[4,5-b]pyridin-2-yl)-1H-pyrazolo[3,4-c]pyridin-5-yl)pyridin-3-yl)isobutyramide] returned an IC50 in assay [1] (Homo sapiens) of 77.8 nM.
Consider `c1cncc(-c2ccnc3[nH]c(-c4n[nH]c5cnc(-c6cncc(CN7CCCCC7)c6)cc45)nc23)c1` [Compound 93, 5-(5-(Piperidin-1-ylmethyl)pyridin-3-yl)-3-(7-(pyridin-3-yl)-3H-imidazo[4,5-b]pyridin-2-yl)-1H-pyrazolo[3,4-c]pyridine], for which, in assay [1] (Homo sapiens), the IC50 is greater than 10000 nM.
`CN(C)c1cncc(-c2cc3c(-c4nc5c(N6CCCCC6)ccnc5[nH]4)n[nH]c3cn2)c1` [Compound 163, N,N-Dimethyl-5-(3-(7-(piperidin-1-yl)-3H-imidazo[4,5-b]pyridin-2-yl)-1H-pyrazolo[3,4-c]pyridin-5-yl)pyridin-3-amine] returned an IC50 in assay [1] (Homo sapiens) of 1030 nM.
`CC(C)(C)C(=O)Nc1cncc(-c2cc3c(-c4nc5c(-c6ccc(F)s6)ccnc5[nH]4)n[nH]c3cn2)c1` [Compound 346, N-(5-(3-(7-(5-Fluorothiophen-2-yl)-3H-imidazo-[4,5-b]pyridin-2-yl)-1H-pyrazolo[3,4-c]pyridin-5-yl)pyridin-3-yl)pivalamide] returned an IC50 in assay [1] (Homo sapiens) of 62.1 nM.
`Fc1ccc(-c2ccnc3[nH]c(-c4n[nH]c5cnc(-c6cncc(CN7CCCC7)c6)cc45)nc23)s1` [Compound 352, 3-(7-(5-Fluorothiophen-2-yl)-3H-imidazo[4,5-b]pyridin-2-yl)-5-(5-(pyrrolidin-1-ylmethyl)pyridin-3-yl)-1H-pyrazolo[3,4-c]pyridine] displayed an IC50 in assay [1] (Homo sapiens) of 156 nM.
`CCNCc1cncc(-c2cc3c(-c4nc5c(-c6cc(F)cc(NCCN(C)C)c6)ccnc5[nH]4)n[nH]c3cn2)c1` [Compound 448, N^1-(3-(2-(5-(5-((Ethylamino)methyl)pyridin-3-yl)-1H-pyrazolo[3,4-c]pyridin-3-yl)-3H-imidazo[4,5-b]pyridin-7-yl)-5-fluorophenyl)-N^2,N^2-dimethylethane-1,2-diamine] showed an IC50 in assay [1] (Homo sapiens) greater than 10000 nM.
In turn, `CCCCC(=O)Nc1cncc(-c2cc3c(-c4nc5c(-c6cc(F)cc(NCCN(C)C)c6)ccnc5[nH]4)n[nH]c3cn2)c1` [Compound 460] registered an IC50 in assay [1] (Homo sapiens) of 139 nM.
In assay [1] (Homo sapiens), `Fc1cccc(-c2ccnc3[nH]c(-c4n[nH]c5cnc(C6CCNCC6)cc45)nc23)c1` [Compound 937, 3-(7-(3-Fluorophenyl)-3H-imidazo[4,5-b]pyridin-2-yl)-5-(piperidin-4-yl)-1H-pyrazolo[3,4-c]pyridine] came in with an IC50 of 1860 nM.
In the case of `Fc1cccc(-c2ccnc3[nH]c(-c4n[nH]c5cnc(C6=CCNCC6)cc45)nc23)c1` [Compound 938, 3-(7-(3-Fluorophenyl)-3H-imidazo[4,5-b]pyridin-2-yl)-5-(1,2,3,6-tetrahydropyridin-4-yl)-1H-pyrazolo[3,4-c]pyridine], the IC50 in assay [1] (Homo sapiens) was greater than 1000 nM.
For `Fc1cccc(-c2ccnc3[nH]c(-c4n[nH]c5cnc(-c6cncc(OC7CCCCC7)c6)cc45)nc23)c1` [Compound 943, 5-(5-(Cyclohexyloxy)pyridin-3-yl)-3-(7-(3-fluorophenyl)-3H-imidazo[4,5-b]pyridin-2-yl)-1H-pyrazolo[3,4-c]pyridine], the IC50 in assay [1] (Homo sapiens) is 950 nM.
The molecule `Fc1cccc(-c2ccnc3[nH]c(-c4n[nH]c5cnc(-c6cncc(OC7CCNCC7)c6)cc45)nc23)c1` [Compound 944, 3-(7-(3-Fluorophenyl)-3H-imidazo[4,5-b]pyridin-2-yl)-5-(5-(piperidin-4-yloxy)pyridin-3-yl)-1H-pyrazolo[3,4-c]pyridine] showed an IC50 in assay [1] (Homo sapiens) greater than 10000 nM.
As for `Fc1cccc(-c2ccnc3[nH]c(-c4n[nH]c5cnc(-c6cncc(OCCN7CCCC7)c6)cc45)nc23)c1` [Compound 946, 3-(7-(3-Fluorophenyl)-3H-imidazo[4,5-b]pyridin-2-yl)-5-(5-(2-(pyrrolidin-1-yl)ethoxy)pyridin-3-yl)-1H-pyrazolo[3,4-c]pyridine], the IC50 in assay [1] (Homo sapiens) is greater than 10000 nM.
The same measure, in the same setting: the value for `Fc1cccc(-c2ccnc3[nH]c(-c4n[nH]c5cnc(-c6cncc(OCc7ccccc7)c6)cc45)nc23)c1` [Compound 950, 5-(5-(Benzyloxy)pyridin-3-yl)-3-(7-(3-fluorophenyl)-3H-imidazo[4,5-b]pyridin-2-yl)-1H-pyrazolo[3,4-c]pyridine] was 4430 nM.
In assay [1] (Homo sapiens), `O=C(CC1CCCCC1)Nc1cncc(-c2cc3c(-c4nc5c(-c6cccc(F)c6)ccnc5[nH]4)n[nH]c3cn2)c1` [Compound 951, 2-Cyclohexyl-N-(5-(3-(7-(3-fluorophenyl)-3H-imidazo[4,5-b]pyridin-2-yl)-1H-pyrazolo[3,4-c]pyridin-5-yl)pyridin-3-yl)acetamide] registered an IC50 greater than 10000 nM.
In turn, `Fc1cccc(-c2ccnc3[nH]c(-c4n[nH]c5cnc(-c6ccncc6)cc45)nc23)c1` [Compound 952, -(7-(3-Fluorophenyl)-3H-imidazo[4,5-b]pyridin-2-yl)-5-(pyridin-4-yl)-1 H-pyrazolo[3,4-c]pyridine] registered an IC50 in assay [1] greater than 1000 nM.
The same measure, in the same setting: under `CC(C)CC(=O)Nc1cncc(-c2cc3c(-c4nc5c(-c6cc(F)cc(OCCN(C)C)c6)ccnc5[nH]4)n[nH]c3cn2)c1` [Compound 1262] stands greater than 10000 nM.
Turning to `CC(C)CC(=O)Nc1cncc(-c2cc3c(-c4nc5c(-c6cc(O)cc(F)c6)ccnc5[nH]4)n[nH]c3cn2)c1` [Compound 1350, N-(5-(3-(7-(3-Fluoro-5-hydroxyphenyl)-3H-imidazo[4,5-b]pyridin-2-yl)-1H-pyrazolo[3,4-c]pyridin-5-yl)pyndin-3-yl)-3-methylbutanamide], the IC50 in assay [1] (Homo sapiens) amounted to 253 nM.
For `CN(C)CC(=O)Nc1cncc(-c2cc3c(-c4nc5c(-c6cccc(F)c6)ccnc5[nH]4)n[nH]c3cn2)c1` [Compound 1437, 2-(Dimethylamino)-N-(5-(3-(7-(3-fluorophenyl)-3H-imidazo[4,5-b]pyridin-2-yl)-1H-pyrazolo[3,4-c]pyridin-5-yl)pyridin-3-yl)acetamide], the IC50 in assay [1] (Homo sapiens) was 646 nM. Against the preceding molecule, the IC50 is about 2.6-fold higher.

As usually defined, the IC50 is the concentration that gives 50% inhibition. The EC50 is the concentration needed to bring the measured effect to its halfway point.
